Experimental findings from ChEMBL document CHEMBL2216747, “Effect of daurisoline on HERG channel electrophysiological function and protein expression” (J Nat Prod, 2012) are described below.

Series [1] relates to HEK293. Briefly: Downregulation of human ERG expression in HEK293 cells assessed as change in intensity of 135 kDa band at 1 to 10 uM after 24 hrs by Western blot analysis. It counts as ADME, cell-based. The settings on record: hek293, 24 h. On the technique in general: A western blot detects proteins with antibodies after separation by electrophoresis.
The subject of series [2] is HEK293. Nature of the series: Downregulation of human ERG expression in HEK293 cells assessed as decrease in intensity of 155 kDa band at 30 uM after 24 hrs by Western blot analysis. The settings on record: hek293, 24 h. It counts as ADME, cell-based.
Series [3] concerns HEK293. Briefly: Downregulation of human ERG expression in HEK293 cells assessed as decrease in intensity of 135 kDa band at 30 uM after 24 hrs by Western blot analysis. It counts as ADME, cell-based. As to conditions: hek293, 24 h.
In series [4] the test system is HEK293. Nature of the series: Reduction in human ERG-tail density expressed in HEK293 cells at 30 uM after 24 hrs by densitometric analysis. It counts as ADME, cell-based. As to conditions: hek293, 24 h.
Series [5] is described as follows: Cmax in rabbit at 30 uM, iv administered as bolus dose. Set-up: dose 30 uM, route intravenous. It counts as ADME, organism-based, Oryctolagus cuniculus. The settings on record: in vivo.
Series [6] is described as follows: Cmax in dog at 30 uM, iv administered as bolus dose. Set-up: dose 30 uM, route intravenous. As to conditions: in vivo. It counts as ADME, organism-based, Canis lupus familiaris.
In another series the target is IKs (KCNE1) (Cavia porcellus, UniProt Q60409). Nature of the series: Inhibition of Iks tail current in guinea pig ventricular myocytes at 100 uM. It counts as cell-based, Ventricular myocyte.
Sequence of IKs (KCNE1) (Q60409 whole entry): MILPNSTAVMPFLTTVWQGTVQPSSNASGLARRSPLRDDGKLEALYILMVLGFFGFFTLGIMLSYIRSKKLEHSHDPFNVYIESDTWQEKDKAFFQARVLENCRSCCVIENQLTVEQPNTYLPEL
In a further series the test system is IKr. Briefly: Inhibition of Ikr tail current in guinea pig ventricular myocytes at 10 uM. It counts as cell-based, Cavia porcellus, Ventricular myocyte.
The nature of series [7]: Inhibition of Ikr tail current in rabbit ventricular myocytes. It counts as cell-based. The settings on record: Oryctolagus cuniculus, Ventricular myocyte.
Series [8] deals with Potassium voltage-gated channel subfamily E member 1 (Oryctolagus cuniculus, UniProt Q28705). Nature of the series: Inhibition of Iks tail current in rabbit ventricular myocytes. It counts as cell-based, Ventricular myocyte.
Sequence of Potassium voltage-gated channel subfamily E member 1 (Q28705 whole entry): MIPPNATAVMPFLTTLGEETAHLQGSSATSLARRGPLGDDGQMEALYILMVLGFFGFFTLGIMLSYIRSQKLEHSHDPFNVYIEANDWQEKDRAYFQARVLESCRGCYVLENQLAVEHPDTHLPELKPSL
Series [9] relates to HEK293. Nature of the series: Downregulation of human ERG mRNA expression in HEK293 cells at 30 uM after 24 hrs by RT-PCR analysis. It counts as ADME, cell-based. The settings on record: hek293, 24 h.
Series [10] deals with HEK293. Briefly: Downregulation of human ERG mRNA expression in HEK293 cells at 30 uM after 24 hrs by qRT-PCR analysis. It counts as ADME, cell-based. The settings on record: hek293, 24 h. A general note: Real-time PCR tracks product formation cycle by cycle.
For series [11], the system named is HEK293. Nature of the series: Downregulation of human ERG expression in HEK293 cells assessed as change in intensity of 155 kDa band at 1 to 10 uM after 24 hrs by Western blot analysis. As to conditions: hek293, 24 h. It counts as ADME, cell-based.

Broadly, the Cmax is the maximum level reached in the sampled fluid or tissue. By inhibition is commonly meant the share of the control response that was lost under treatment. The low end stands for a response near the control, the high end for a response far below the control. Broadly, the IC50 is the concentration needed to halve the response being measured. Read a high IC50 as weaker potency in that assay. Regarding `COc1cc2c(cc1O)[C@@H](Cc1ccc(O)c(Oc3ccc(C[C@@H]4c5cc(OC)c(OC)cc5CCN4C)cc3)c1)N(C)CC2` [DARUISOLINE], the Activity entry with HEK293 [1] is “Non-toxic”; in the series with HEK293 [2] it was “Toxic”; with HEK293 [3], “Toxic”; with HEK293 [4], “Toxic”; in the series on HEK293 [9], “Toxic”; with HEK293 [10], “Toxic”. Also, the Activity entry with HEK293 [11] is “Non-toxic”. Besides, the Cmax at 30 µM in series [5] and in series [6] was 1700 nM each time. The same molecule returned an inhibition at 100 µM at IKs (KCNE1) of 50%. For the same molecule, 10 µM produced 39% inhibition with IKr. The IC50 is 19.9 µM in series [7] and 52.5 µM in [8].
